According to patent US12552797B2, “Process for making (3-[cyclopropylethoxy(difluoro)methyl]-6-6[5-fluoro-6-(2,2,2-trifluoroethoxy-3-pyridyl]- [1,2,4]triazolo[4,3-a]pyrazine” (Praxis Precision Medicines, Inc., priority 2019, dated 2026):
“And” between values parts separate entries of the source, which are not always exact repeats. Equal entries are not always repeated.

How the values were obtained:
[1] = Particle size distribution (PSD) of Compound 1 before and after manual or jet milling (Sympatec HELOS, dry method); format: physicochemical
Experimental: Compound 1 was milled by manual milling or jet milling to reduce particle size. For manual milling, Compound 1 was weighed into a ceramic motor and gentle milled for ˜5 mins. Particle size distribution (PSD) of Compound 1 indicated D90=77.82 μm and D90=28.27 μm before and after manual milling of Compound 1. PSD via dry method was conducted by Sympatec HELOS particle size analyzer, and dispersing system and pressure were RODOS and 0.5 bar, respectively.
For jet milling, Compound 1 was micronized by jet milling with a yield of ˜90%. Particle size of the jet-milled material was reduced to a D90 range of 4.7 to 13.5 μm.

[2] = Stability of suspension formulations in methylcellulose/Poloxamer 188 vehicles (appearance, concentration, purity, PSD); format: physicochemical; set-up: key: *: homogeneous suspension initially, sedimentation occurred over time and returned to homogeneous after gentle agitation; #: viscous homogeneous suspension initially, sedimentation occurred over time and returned to homogeneous after gentle agitation
Experimental: As shown in Tables 9-11, various suspension formulations were tested for stability under different conditions.
To prepare a suspension weigh required amount of milled Compound 1 into a glass container and add corresponding volume of the vehicle. Thoroughly disperse the compound into a homogenous suspension using an overhead mixer at the final concentration target. Concentrations were prepared at 0.1 mg/mL and at 10 mg/mL. The suspension products were physically evaluated on visual appearance, concentration, purity and PSD.
The vehicles are prepared by dissolving 0.5% by weight of either 400 cP methylcellulose or 4000 cP methylcellulose and 0.2% Poloxamer 188. For the preserved suspensions, additionally 1.0% by volume of paraben preservative solution was dissolved into vehicle using an overhead mixer. The paraben preservative solution was prepared by dissolving 0.10 g methyl paraben, 0.025 g propylparaben in 9.875 g propylene glycol dissolved by mixing with a stir bar at room temperature for 1 hour.

Compound: CCOC(F)(F)c1nnc2cnc(-c3cnc(OCC(F)(F)F)c(F)c3)cn12 [Compound 1, 3-(ethoxydifluoromethyl)-6-(5-fluoro-6-(2,2,2-trifluoroethoxy)pyridin-3-yl)-[1,2,4]triazolo[4,3-a]pyrazine]
- D10 ([1]; after jet milling, batch 1): 0.7 μm
- D50 ([1]; after jet milling, batch 1): 1.8 μm
- D90 ([1]; after jet milling, batch 1): 4.7 μm
- D10 ([1]; after jet milling, batch 2): 1.1 μm
- D50 ([1]; after jet milling, batch 2): 3.7 μm
- D90 ([1]; after jet milling, batch 2): 8.3 μm
- D10 ([1]; after jet milling, batch 3): 0.87 μm
- D50 ([1]; after jet milling, batch 3): 5.58 μm
- D90 ([1]; after jet milling, batch 3): 13.5 μm
- D10 ([1]; after manual milling): 0.8 μm
- D50 ([1]; after manual milling): 3.6 μm
- D90 ([1]; after manual milling): 28.27 μm and 28.3 μm
- D10 ([1]; before milling): 1.8 μm
- D50 ([1]; before milling): 22.2 μm
- D90 ([1]; before milling): 77.82 μm and 77.8 μm
- D10 ([1]; before milling, batch 1): 1.8 μm
- D50 ([1]; before milling, batch 1): 15.4 μm
- D90 ([1]; before milling, batch 1): 80.9 μm
- D10 ([1]; before milling, batch 2): 13.2 μm
- D50 ([1]; before milling, batch 2): 67.3 μm
- D90 ([1]; before milling, batch 2): 162.1 μm
- D10 ([1]; before milling, batch 3): 14.6 μm
- D50 ([1]; before milling, batch 3): 56.8 μm
- D90 ([1]; before milling, batch 3): 104 μm
- Visual Appearance ([2]; 0.5% 400 cP MC, 0.2% Poloxamer 188, 0.1 mg/mL, 1 h at RT): *
- Visual Appearance ([2]; 0.5% 400 cP MC, 0.2% Poloxamer 188, 0.1 mg/mL, 4 h at RT): *
- Visual Appearance ([2]; 0.5% 400 cP MC, 0.2% Poloxamer 188, 0.1 mg/mL, 24 h at RT): *
- Visual Appearance ([2]; 0.5% 400 cP MC, 0.2% Poloxamer 188, 10 mg/mL, 1 h at RT): *
- Visual Appearance ([2]; 0.5% 400 cP MC, 0.2% Poloxamer 188, 10 mg/mL, 4 h at RT): *
- Visual Appearance ([2]; 0.5% 400 cP MC, 0.2% Poloxamer 188, 10 mg/mL, 24 h at RT): *
- Visual Appearance ([2]; 0.5% 400 cP MC, 0.2% Poloxamer 188 and 1.0% of paraben preservative solution, 0.1 mg/mL, 1 h at RT): *
- Visual Appearance ([2]; 0.5% 400 cP MC, 0.2% Poloxamer 188 and 1.0% of paraben preservative solution, 0.1 mg/mL, 4 h at RT): *
- Visual Appearance ([2]; 0.5% 400 cP MC, 0.2% Poloxamer 188 and 1.0% of paraben preservative solution, 0.1 mg/mL, 24 h at RT): *
- Visual Appearance ([2]; 0.5% 400 cP MC, 0.2% Poloxamer 188 and 1.0% of paraben preservative solution, 10 mg/mL, 1 h at RT): *
- Visual Appearance ([2]; 0.5% 400 cP MC, 0.2% Poloxamer 188 and 1.0% of paraben preservative solution, 10 mg/mL, 4 h at RT): *
- Visual Appearance ([2]; 0.5% 400 cP MC, 0.2% Poloxamer 188 and 1.0% of paraben preservative solution, 10 mg/mL, 24 h at RT): *
- Visual Appearance ([2]; 0.5% 4000 cP MC, 0.2% Poloxamer 188, 0.1 mg/mL, 1 h at RT): #
- Visual Appearance ([2]; 0.5% 4000 cP MC, 0.2% Poloxamer 188, 0.1 mg/mL, 4 h at RT): #
- Visual Appearance ([2]; 0.5% 4000 cP MC, 0.2% Poloxamer 188, 0.1 mg/mL, 24 h at RT): #
- Visual Appearance ([2]; 0.5% 4000 cP MC, 0.2% Poloxamer 188, 10 mg/mL, 1 h at RT): #
- Visual Appearance ([2]; 0.5% 4000 cP MC, 0.2% Poloxamer 188, 10 mg/mL, 4 h at RT): #
- Visual Appearance ([2]; 0.5% 4000 cP MC, 0.2% Poloxamer 188, 10 mg/mL, 24 h at RT): #
- Visual Appearance ([2]; 0.5% 4000 cP MC, 0.2% Poloxamer 188 and 1.0% of paraben preservative solution, 0.1 mg/mL, 1 h at RT): #
- Visual Appearance ([2]; 0.5% 4000 cP MC, 0.2% Poloxamer 188 and 1.0% of paraben preservative solution, 0.1 mg/mL, 4 h at RT): #
- Visual Appearance ([2]; 0.5% 4000 cP MC, 0.2% Poloxamer 188 and 1.0% of paraben preservative solution, 0.1 mg/mL, 24 h at RT): #
- Visual Appearance ([2]; 0.5% 4000 cP MC, 0.2% Poloxamer 188 and 1.0% of paraben preservative solution, 10 mg/mL, 1 h at RT): #
- Visual Appearance ([2]; 0.5% 4000 cP MC, 0.2% Poloxamer 188 and 1.0% of paraben preservative solution, 10 mg/mL, 4 h at RT): #
- Visual Appearance ([2]; 0.5% 4000 cP MC, 0.2% Poloxamer 188 and 1.0% of paraben preservative solution, 10 mg/mL, 24 h at RT): #
